Structures are written as SMILES. Where two headings read alike, the source gives them in different places.

The subject of one assay is Theileria equi. The assay is described as follows: T. equi growth in erythrocytes, hydroethidine flow cytometry. The class given is cell-based. The settings on record: Erythrocyte, 72 hours, averaged from three independent experiments, read-out: EC50, proliferation of Theileria equi. The protocol: Theileria equi: The effect of tartrolon D2 on T. equi growth in vitro was quantified using an assay that has been previously described by Hines, S. A. et al. (Parasit Vectors 8, 33 (2015)). Briefly, wells containing an erythrocyte concentration of 9% and a starting percentage parasitized erythrocyte (ppe) of 0.3% were established in 96-well plates. Parasites were cultured in the presence of tartrolon D2 or DMSO for 72 hours with a change of media and compound every 24 hours. After 72 hours, the parasites were stained with hydroethidine and enumerated by flow cytometry (FACSCaliber). Samples were run in triplicate and three independent experiments conducted. The data was analyzed and the EC50 values calculated as described above for T. gondii ME49.
On the technique in general: A flow cytometer gives signals particle by particle.

In the next assay the test system is Toxoplasma gondii ME49. The experiment in a line: Bright-Glo luciferase assay of parasite proliferation in HFF cells. Type of assay: cell-based. The settings on record: read-out: EC50 against T. gondii ME49; added 8 h after infection, 24 hours, 3 independent experiments. On the procedure:
Human foreskin fibroblast (HFF) cells were established in 96-well plates, and then infected with ME49 parasites engineered to express green fluorescent protein and firefly luciferase (2.5 to 5×10^5/well). Eight hours after infection, dilutions of Tartrolon D1 isolated as in Example 3, Tartrolon D2 isolated as in Example 4, or vehicle (DMSO) at equivalent concentrations were added to infected cells and the plates incubated for 24 hours (37° C., 5% CO2). Proliferation of the parasites was then measured using Bright-Glo luciferase assay system (available from Promega). Samples were run in triplicate and three independent biological replicates were conducted. The log 10 [Tartrolon D] versus percent inhibition of parasite proliferation was analyzed using the four parameter variable slope analysis in Graphpad Prism.

Another assay has as its system Babesia bovis. The experiment in a line: SYBR green-based growth suppression assay in bovine red blood cells. The class given is cell-based. The settings on record: SYBR green fluorescence; listed as tartrolon D2/E; read-out: EC50 against B. bovis. On the procedure: Purified tartrolon D/E (with starting materials being either D1 or D2) was tested against another apicomplexan pathogen, Babesia bovis, which proliferates in bovine red blood cells. Growth suppression of B. bovis was quantified using a modified SybrGreen-based assay (Molecular Probes, Life Sciences Technology). SYBR green is an asymmetrical cyanine dye that is used as a nucleic acid stain. In this assay, parasite replication in red blood cells is measured directly by the incorporation of SYBR green into parasite DNA. Tartrolon D/E concentrations ranging from 0.001 to 10,000 nM were tested on infected cells and DMSO (vehicle) was run in parallel as a negative control.

Assay [1] has as its system Plasmodium falciparum 3D7. The assay is described as follows: P. falciparum SYBR green flow cytometry assay. The class given is cell-based. The following applies: 72 hours, read-out: EC50, proliferation of Plasmodium falciparum 3D7. On the procedure: Plasmodium falciparum: Parasites were cultured in 96-well plates at 0.5% initial parasitemia. Parasites were cultured for 72 hours in the presence of dilutions of tartrolon D2, dihydroartemisinin (DHA, a drug for treating malaria as a positive control) or DMSO after which parasites were stained with SYBR green fluorescence and enumerated by flow cytometry. The assay was conducted once and all samples were run in triplicate. Data was analyzed with GraphPad Prism as described for T. gondii.

Another assay deals with Sarcocystis neurona. The assay is described as follows: S. neurona luciferase proliferation assay in bovine turbinate cells. The class given is cell-based. The settings on record: BT cells, 96 hours. On the procedure:
Sarcocystis neurona: Bovine turbinate cells (BT cells, ATCC CRL-1390, American Type Culture Collection, Manassas, Va.) were seeded into 96-well plates and infected with S. neurona merozoites that had been engineered to express green fluorescent protein and firefly luciferase (2×10^4/well). Dilutions of tartrolon D2 or DMSO were added to the infected cells and the plates incubated for 96 hours (37° C., 5% CO2). After 96 hours, parasite proliferation was quantified and the data analyzed as described with T. gondii ME49. The assay was conducted once and all samples were run in triplicate.

A further assay relates to C. parvum. The assay is described as follows: Neonatal mouse C. parvum infection, quantitative PCR of intestinal parasites. The class given is in vivo, Cryptosporidium parvum. The settings on record: neonatal mice, qPCR. The protocol:
To confirm the in vivo activity against Cryptosporidium parvum, neonatal mice were infected with C. parvum (5×10^4 oocysts per mouse), and 24 hours after infection, the mice were dosed twice daily for 4 days with either 4 or 40 mg/kg of tartrolon D/E (specifically, D2) in starting concentrations. Day 5 post-infection, the mice were sacrificed, the intestines collected and total DNA extracted. Intestinal parasite numbers were quantified by quantitative PCR (qPCR) of the C. parvum HSP70 gene and extrapolation to a standard curve standard curve of known oocyst numbers (see Shahiduzzaman, et al., Vet Parasitol 167, 43-9 (2010)). At both the high and the low dose of Tartrolon D/E, nearly 100% of the parasites were eliminated from the intestine as measured by quantitative PCR.
On the technique in general: In qPCR the cycle at which signal appears reflects the starting amount.

The test system of a further assay is Plasmodium berghei. The experiment in a line: Plasmodium berghei-luciferase infection in mice, IVIS imaging. Type of assay: in vivo. The settings on record: 8 mg/kg intraperitoneal once per day for 5 days, imaged seven days after infection. The protocol:
Mice were infected with Plasmodium berghei expressing luciferase. 48 hours post infection mice were treated with tartrolon D/E (specifically, D2) initially solubilized in 2% methylcellulose and 0.5% Tween80 by intraperitoneal injection for 5 days, once per day. Control mice were treated with vehicle alone. Seven days after infection, mice were given luciferase substrate (150 mg/kg D-luciferin Potassium salt in PBS (Goldbio)) and imaged in an IVIS Lumina II to quantify level of infection.

The subject of assay [2] is P. falciparum strains. Further details: key: R = Clinically Resistant; S + Sensitive. The settings on record: cited from earlier work.
Assay [3] has as its system P. falciparum strains. The assay is described as follows: 3H hypoxanthine incorporation assay of P. falciparum strains in human red blood cells. Type of assay: cell-based, Plasmodium falciparum. On the procedure:
The potency of the compounds of the invention against multi-drug resistant P. falciparum strains was tested. Parasites were cultured in 96-well plates in human red blood cells at 0.5% initial parasitemia for 72 hours in the presence of dilutions of tartrolon D/E (specifically, D2 as the starting material in FIG. 11A), purified tartrolon E (FIG. 11C), dihydroartemisinin (DHA, as a positive control in FIG. 11B), or DMSO (as a negative control). Parasites proliferation was then determined by ^3H hypoxanthine incorporation.
Specifically, parasitized red blood cells (pRBCs) were grown in 0.5% Albumax I (Thermo Fisher Scientific). Assays were set up in 96-well plates at 0.5% initial parasitemia and 0.5% hematocrit. Parasites were exposed to various concentrations of Tartrolon D or E and dihydroartemisinin (DHA) for 48 hours and then pulsed with 0.5 microcuries of tritium-labeled hypoxanthine Moravek (MT-700) for another 24 hours. At the end of 72 hours, assay plates were processed through an Inotech cell harvester and collected on Inotech glass fiber filters. Filters were transferred to Omniplate-96 cassettes (Perkin Elmer) and dried overnight at room temperature. About […] of Microscint-O scintillation cocktail (Perkin Elmer) was added to each well. Each well was counted for 2 minutes on a Packard Topcount scintillation counter. The uptake of radiolabeled hypoxanthine by compound-treated pRBCs was compared relative to uptake by DMSO solvent-treated controls. […] The starting material used as the active reagent in FIG. 11C was tartrolon E, purified as follows: extract from the bacterial pellet of the Teredinibacter turnerae T7901 was purified by reversed phase HPLC using diode array detection. A C18 column (Phenomenex CHO-7878, 100×10 mm) was employed with an isocratic mobile phase (85% acetontrile in water, 3.5 mL/min) to yield tartrolon E (4.7 mg, retention time 8 min).

The mark [4] stands for this setting: cell line 3D7 (Netherlands, clone of NF54).
Setting [5] is: cell line Goan Isolate (Goa, India).

Regarding `C[C@@H]1C(=O)C[C@@H](O)CC/C=C/C=C\CC[C@H](C)OC(=O)C(O)[C@]2(O)O[C@@H](CC[C@H]2C)[C@H](C)C(=O)C[C@@H](O)CC/C=C/C=C\CC[C@H](C)OC(=O)C(O)[C@]2(O)O[C@H]1CC[C@H]2C` (stereo partly drawn) [Tartrolon D2, tartrolon D], the EC50 with Theileria equi is approximately 0.35 nM; in the assay on Toxoplasma gondii ME49, 2.7 nM; in the assay with Babesia bovis, 16 nM; in assay [1] it was approximately 0.105 nM; in the assay on Sarcocystis neurona, approximately 13.2 nM. For the same compound, the “parasites eliminated from the intestine” value with C. parvum (high dose 40 mg/kg twice daily for 4 days from 24 h after infection) and with C. parvum (low dose 4 mg/kg twice daily for 4 days from 24 h after infection) was approximately 100% in each case. The “P. berghei infection (luminescence)” value with Plasmodium berghei is reported as “reduced P. berghei infection”.

`COc1ncnc(NS(=O)(=O)c2ccc(N)cc2)c1OC` [Sulfodoxine]: the Drug resistance phenotype result in the assay with P. falciparum strains [2] (setting [4]) is recorded as “R”; with P. falciparum strains [2] (cell line D6 (Sierra Leone)), “S”; in the assay with P. falciparum strains [2] (cell line Dd2 (SE Asia)), “R”; in the assay on P. falciparum strains [2] (setting [5]) it was “R”; in the assay on P. falciparum strains [2] (cell line HB3 (Honduras)) it was “S”; in the assay on P. falciparum strains [2] (cell line NF54 (Netherlands)) it was “R”.

Consider `OC(c1cc(C(F)(F)F)nc2c(C(F)(F)F)cccc12)C1CCCCN1` (stereo not drawn) [Mefloquine], for which the Drug resistance phenotype result is given as “S” in the assay with P. falciparum strains [2] (setting [4]); “S” with P. falciparum strains [2] (cell line 7G8 (Brazil)); “S” in the assay with P. falciparum strains [2] (cell line D6 (Sierra Leone)); “R” in the assay with P. falciparum strains [2] (cell line Dd2 (SE Asia)); “S” in the assay on P. falciparum strains [2] (setting [5]); “S” in the assay on P. falciparum strains [2] (cell line HB3 (Honduras)). Further, the Drug resistance phenotype entry in the assay with P. falciparum strains [2] (cell line NF54 (Netherlands)) is reported as “S”; with P. falciparum strains [2] (cell line TM90C2A (Thailand)), “R”; in the assay with P. falciparum strains [2] (cell line V1/S (Vietnam)), “S”.

With `CC1(C)N=C(N)N=C(N)N1c1ccc(Cl)cc1` [Cycloguanil], the Drug resistance phenotype entry in the assay with P. falciparum strains [2] (setting [4]) is on record as “S”; in the assay on P. falciparum strains [2] (cell line 7G8 (Brazil)), “R”; in the assay with P. falciparum strains [2] (cell line D6 (Sierra Leone)), “S”; in the assay with P. falciparum strains [2] (cell line Dd2 (SE Asia)), “R”; in the assay on P. falciparum strains [2] (setting [5]) it was “R”; in the assay on P. falciparum strains [2] (cell line HB3 (Honduras)), “S”. The values for the Drug resistance phenotype entry in the assay with P. falciparum strains [2] (cell line NF54 (Netherlands)), in the assay with P. falciparum strains [2] (cell line TM90C2A (Thailand)) and in the assay with P. falciparum strains [2] (cell line V1/S (Vietnam)) were “S”, “R” and “R”, respectively.

In the case of `C=C[C@H]1C[N@@]2CC[C@H]1C[C@H]2[C@H](O)c1ccnc2ccc(OC)cc12` [Quinine], the Drug resistance phenotype entry is “S” in the assay with P. falciparum strains [2] (setting [4]); “R” with P. falciparum strains [2] (cell line 7G8 (Brazil)); “S” in the assay on P. falciparum strains [2] (cell line D6 (Sierra Leone)); “R” with P. falciparum strains [2] (cell line Dd2 (SE Asia)); “S” in the assay on P. falciparum strains [2] (cell line HB3 (Honduras)); “S” in the assay on P. falciparum strains [2] (cell line NF54 (Netherlands)). The Drug resistance phenotype entry in the assay with P. falciparum strains [2] (cell line V1/S (Vietnam)) was “R”.

Regarding `C[C@H]1[C@@H](O)O[C@@H]2O[C@@]3(C)CC[C@H]4[C@H](C)CC[C@@H]1[C@@]24OO3` [Dihydroartemisinin, dihydroartemisinin], the EC50 in [1] was approximately 0.02 nM; in the assay with P. falciparum strains [3] (Plasmodium falciparum, 3D7, Erythrocyte, parasite line 3D7, read-out: EC50), 0.2 nM; in the assay on P. falciparum strains [3] (Plasmodium falciparum, DD2, Erythrocyte, parasite line Dd2, read-out: EC50), 0.14 nM; in the assay with P. falciparum strains [3] (Plasmodium falciparum, Erythrocyte, parasite line 7G8, read-out: EC50) it was 0.095 nM; in the assay on P. falciparum strains [3] (Plasmodium falciparum, Erythrocyte, parasite line 2012 Indian Isolate (Goa), read-out: EC50), 0.21 nM; in the assay with P. falciparum strains [3] (Plasmodium falciparum, Erythrocyte, parasite line D6, read-out: EC50), 0.17 nM. The EC50 in the assay on P. falciparum strains [3] (Plasmodium falciparum, Erythrocyte, parasite line V1S, read-out: EC50) was 0.084 nM; in the assay with P. falciparum strains [3] (Plasmodium falciparum, HB3, Erythrocyte, parasite line HB3, read-out: EC50), 0.16 nM; in the assay with P. falciparum strains [3] (Plasmodium falciparum, NF54, Erythrocyte, parasite line NF54, read-out: EC50) it was 0.15 nM; in the assay with P. falciparum strains [3] (Plasmodium falciparum, TM90C2A, Erythrocyte, parasite line TM90C2A, read-out: EC50), 0.091 nM; in the assay with P. falciparum strains [3] (parasite line 3D7, listed as Dihydroartemisinin (DHA), read-out: EC50), 0.11 nM.

Regarding `C[C@@H]1CCC2CC(=O)C[C@@H](O)CC/C=C/C=C\CC[C@H](C)OC(=O)[C@@H]3O[B-]45O[C@@H](C(=O)O[C@@H](C)CC/C=C\C=C\CC[C@H](O)CC(=O)CC6CC[C@@H](C)[C@]3(O6)O4)[C@@]1(O2)O5` [Tartrolon E, tartrolon E], in the assay with P. falciparum strains [3] (strain Dd2, purified tartrolon E as starting material (FIG. 11C), read-out: EC50 against Dd2), the EC50 was approximately 0.16 nM.

The values above are taken from US11135231B2, “Methods and compositions for prevention and treatment of Apicomplexan infections” (Tufts Medical Center, Inc., priority 2016, dated 2021).
